For 22 compounds, inhibition and IC50 results are on record in patent US20230009626A1 (ICHNOS SCIENCES S.A., priority 2018, published 2023).

For the assay, the target named is HPK1 (MAP4K1) (Homo sapiens, UniProt Q92918). The assay is described as follows: FRET Assay for HPK1 (MAP4K1): one step binding assay, displacement of labeled tracer. The settings on record: for inhibition at 1 µM: 1 μM compound; for inhibition at 1 µM / inhibition at 10 µM: FRET ratio 665/620, percent of control; for inhibition at 10 µM: 10 μM compound; for IC50: dose response curve, nonlinear regression. The source says:
FRET Assay for HPK1 (MAP4K1):
This is a one step binding assay based on the binding and displacement of the labeled tracer, where compound addition is followed by addition of the anti-GST tagged europium (Eu) as the donor and Alexa Fluor-labeled tracer as the acceptor. Simultaneous binding of both the tracer and GST-antibody to the kinase domain of HPK1 results in a high degree of FRET (fluorescence resonance energy transfer) from the anti-GST tagged europium (Eu) fluorophore to the Alexa Fluor® 647 fluorophore on the kinase tracer and this signal is reduced in presence of the inhibitor that can be measured.
Test compounds or reference compounds such as Sunitinib (Sigma) were dissolved in dimethylsulfoxide (DMSO) to prepare 10.0 mM stock solutions and diluted to the desired concentration. The final concentration of DMSO in the reaction was 3% (v/v). The assay mixture was prepared by mixing 4 nM of the Eu-Anti-GST Antibody and 10 nM MAP4K-1 enzyme in the Kinase buffer containing 50mM HEPES (pH 7.5), 10 mM MgCl2, 1 mM EGTA, 0.01% Brij-35 with or without the desired concentration of the compound. The reaction was incubated on ice for 15 mins. The pre-incubation step was followed by addition of the 20 nM Kinase Tracer 222 into the reaction mixture. After shaking for 5 min the reaction was further incubated for 1 hour at room temperature and this was kept at 4° C. and read on ARTEMIS reader as per the kit instructions (Thermo). […] The activity was calculated as percent of control reaction. IC50 values were calculated from dose response curve by nonlinear regression analysis using GraphPad Prism software.
Percentage inhibition at concentrations of 1.0 μM and 10.0 μM are given in the table along with IC50 (nM) details for selected examples.

Sequence of HPK1 (MAP4K1) (Q92918 whole entry): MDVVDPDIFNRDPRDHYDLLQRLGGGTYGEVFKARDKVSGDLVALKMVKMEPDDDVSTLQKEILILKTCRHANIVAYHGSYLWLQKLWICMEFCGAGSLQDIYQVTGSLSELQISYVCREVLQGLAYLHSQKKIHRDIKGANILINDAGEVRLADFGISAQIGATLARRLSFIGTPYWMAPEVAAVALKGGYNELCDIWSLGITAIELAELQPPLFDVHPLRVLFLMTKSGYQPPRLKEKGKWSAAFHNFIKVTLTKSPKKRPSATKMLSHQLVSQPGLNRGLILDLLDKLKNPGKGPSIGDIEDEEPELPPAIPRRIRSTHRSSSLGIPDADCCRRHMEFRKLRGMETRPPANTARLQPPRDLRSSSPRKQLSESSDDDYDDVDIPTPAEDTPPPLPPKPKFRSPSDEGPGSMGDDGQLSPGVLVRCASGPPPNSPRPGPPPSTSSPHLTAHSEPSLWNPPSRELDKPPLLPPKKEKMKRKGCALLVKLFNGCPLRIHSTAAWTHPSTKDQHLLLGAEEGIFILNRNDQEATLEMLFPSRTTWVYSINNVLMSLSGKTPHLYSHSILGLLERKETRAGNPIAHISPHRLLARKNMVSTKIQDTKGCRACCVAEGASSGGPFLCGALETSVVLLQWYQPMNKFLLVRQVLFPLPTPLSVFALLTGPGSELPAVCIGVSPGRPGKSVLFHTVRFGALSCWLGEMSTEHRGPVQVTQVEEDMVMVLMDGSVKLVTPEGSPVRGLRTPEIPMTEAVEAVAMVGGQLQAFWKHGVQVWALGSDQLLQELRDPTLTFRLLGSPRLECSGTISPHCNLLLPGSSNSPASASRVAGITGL

Usually inhibition stands for the percentage by which the read-out fell short of the control. By IC50 is commonly meant the point on the concentration scale where inhibition reaches its midpoint. Read a high IC50 as weaker potency. `CCOc1cccc(F)c1-c1cc2c(cn1)NC(=O)/C2=C(/C)Nc1cnn(C)c1` [Example 25, (Z)-5-(2-Ethoxy-6-fluorophenyl)-3-(1-((1-methyl-1H-pyrazol-4-yl)amino)ethylidene)-1H-pyrrolo[2,3-c]pyridin-2(3H)-one]: the inhibition at 1 µM came to 87.1%, the inhibition at 10 µM stood at 85.3% and the IC50 was less than 50 nM.

Consider `COc1cccc(F)c1-c1cc2c(cc1F)NC(=O)/C2=C(/C)Nc1cnn(C)c1` [Example 26], for which the inhibition at 1 µM was determined as 88.8%, the inhibition at 10 µM was 93.5% and the IC50 was less than 50 nM.

In the case of `COc1cccc(F)c1-c1cc2c(cn1)NC(=O)/C2=C(/C)Nc1cnn(C2COC2)c1` [Example 27, (Z)-5-(2-Fluoro-6-methoxyphenyl)-3-(1-((1-(oxetan-3-yl)-1H-pyrazol-4-yl)amino)ethylidene)-1H-pyrrolo[2,3-c]pyridin-2(3H)-one], the inhibition at 1 µM turned out to be 88.4%, the inhibition at 10 µM is 96.3% and the IC50 was less than 50 nM.

As for `COc1cccc(F)c1-c1cc2c(cn1)NC(=O)/C2=C(/C)Nc1ccn(C)n1` [Example 28, (Z)-5-(2-Fluoro-6-methoxyphenyl)-3-(1-((1-methyl-1H-pyrazol-3-yl)amino)ethylidene)-1H-pyrrolo[2,3-c]pyridin-2(3H)-one], the inhibition at 1 µM stood at 84.8%, the inhibition at 10 µM amounted to 89.4% and the IC50 is less than 50 nM.

As for `CCn1cc(N/C(C)=C2\C(=O)Nc3cnc(-c4c(F)cccc4OC)cc32)cn1` [Example 29, (Z)-3-(1-((1-Ethyl-1H-pyrazol-4-yl)amino)ethylidene)-5-(2-fluoro-6-methoxyphenyl)-1H-pyrrolo[2,3-c]pyridin-2(3H)-one], the inhibition at 1 µM worked out at 87.4%, the inhibition at 10 µM was 85.1% and the concentration for half-maximal inhibition (IC50) is less than 50 nM.

Consider `COc1cccc(F)c1-c1cc2c(cn1)NC(=O)/C2=C(/C)Nc1cnn(C2CC2)c1` [Example 30, (Z)-3-(1-((1-Cyclopropyl-1H-pyrazol-4-yl)amino)ethylidene)-5-(2-fluoro-6-methoxyphenyl)-1H-pyrrolo[2,3-c]pyridin-2(3H)-one], for which the inhibition at 1 µM was found to be 89.9%, the inhibition at 10 µM was 92.8% and the concentration for half-maximal inhibition (IC50) is less than 50 nM.

Regarding `COc1cccc(F)c1-c1cc2c(cn1)NC(=O)/C2=C(/C)Nc1cnn(C(C)C#N)c1` (centres unmarked) [Example 31, (Z)-2-(4-((1-(5-(2-Fluoro-6-methoxyphenyl)-2-oxo-1H-pyrrolo[2,3-c]pyridin-3(2H)-ylidene)ethyl)amino)-1H-pyrazol-1-yl)propanenitrile], the inhibition at 1 µM came to 86.9%, the inhibition at 10 µM was 92.3% and the IC50 is less than 50 nM.

With `CC/C(Nc1cnn(C)c1)=C1/C(=O)Nc2cnc(-c3c(F)cccc3OC)cc21` [Example 32, (Z)-5-(2-Fluoro-6-methoxyphenyl)-3-(1-((1-methyl-1H-pyrazol-4-yl)amino)propylidene)-1H-pyrrolo[2,3-c]pyridin-2(3H)-one], the inhibition at 1 µM turned out to be 90.3%, the inhibition at 10 µM was determined as 100% and the IC50 is less than 50 nM.

Consider `COc1ccncc1-c1cc2c(cn1)NC(=O)/C2=C(/C)Nc1cnn(C)c1` [Example 33, (Z)-5-(4-methoxypyridin-3-yl)-3-(1-((1-methyl-1H-pyrazol-4-yl)amino)ethylidene)-1H-pyrrolo[2,3-c]pyridin-2(3H)-one], for which the inhibition at 1 µM is 91.6%, the inhibition at 10 µM was found to be 87.8% and the IC50 was less than 50 nM.

As to `CCOc1cccc(F)c1-c1cc2c(cn1)NC(=O)/C2=C(/C)Nc1ccc(N2CCNCC2)cc1` [Example 34, (Z)-5-(2-Ethoxy-6-fluorophenyl)-3-(1-((4-(piperazin-1-yl)phenyl)amino)ethylidene)-1H-pyrrolo[2,3-c]pyridin-2(3H)-one], the inhibition at 1 µM is 81.7%, the inhibition at 10 µM came out at 80% and the IC50 was less than 50 nM.

For the compound `C/C(Nc1cnn(C)c1)=C1/C(=O)Nc2cnc(-c3c(F)cccc3OC(F)F)cc21` [Example 35, (Z)-5-(2-(Difluoromethoxy)-6-fluorophenyl)-3-(1-((1-methyl-1H-pyrazol-4-yl)amino)ethylidene)-1H-pyrrolo[2,3-c]pyridin-2(3H)-one], the inhibition at 1 µM was 88%, the inhibition at 10 µM stood at 100% and the IC50 was less than 50 nM.

With `CCOc1cccc(F)c1-c1cc2c(cn1)NC(=O)/C2=C(/C)Nc1ccc(N2CCNCC2)nc1` [Example 36, (Z)-5-(2-Ethoxy-6-fluorophenyl)-3-(1-((6-(piperazin-1-yl)pyridin-3-yl)amino)ethylidene)-1H-pyrrolo[2,3-c]pyridin-2(3H)-one], the inhibition at 1 µM was found to be 87.8%, the inhibition at 10 µM stood at 85.1% and the 50% inhibitory concentration (IC50) was less than 50 nM.

On to `CCOc1cccc(F)c1-c1cc2c(cn1)NC(=O)/C2=C(/C)Nc1ccc(N2CCOCC2)nc1` [Example 37, (Z)-5-(2-Ethoxy-6-fluorophenyl)-3-(1-((6-morpholinopyridin-3-yl)amino)ethylidene)-1H-pyrrolo[2,3-c]pyridin-2(3H)-one], for which the inhibition at 1 µM stood at 84.4%, the inhibition at 10 µM is 91.2% and the IC50 fell in the range of 50 to 100 nM.

With `C/C(Nc1ccc(N2CCOCC2)nc1)=C1/C(=O)Nc2cnc(-c3cnccc3C)cc21` [Example 38, (Z)-5-(4-Methylpyridin-3-yl)-3-(1-((6-morpholinopyridin-3-yl)amino)ethylidene)-1H-pyrrolo[2,3-c]pyridin-2(3H)-one], the inhibition at 1 µM was determined as 93.5% and the IC50 was less than 50 nM.

Consider `COCCn1cc(N/C(C)=C2\C(=O)Nc3cnc(-c4c(F)cccc4OC)cc32)cn1` [Example 39, (Z)-5-(2-Fluoro-6-methoxyphenyl)-3-(1-((1-(2-methoxyethyl)-1H-pyrazol-4-yl)amino)ethylidene)-1H-pyrrolo[2,3-c]pyridin-2(3H)-one], for which the inhibition at 1 µM is 72.2%, the inhibition at 10 µM was found to be 86.6% and the IC50 is less than 50 nM.

As for `COc1cccc(F)c1-c1cc2c(cn1)NC(=O)/C2=C(\Nc1cnn(C)c1)C(C)C` [Example 40, (Z)-5-(2-Fluoro-6-methoxyphenyl)-3-(2-methyl-1-((1-methyl-1H-pyrazol-4-yl)amino)propylidene)-1H-pyrrolo[2,3-c]pyridin-2(3H)-one], the inhibition at 1 µM is 81.3%, the inhibition at 10 µM was found to be 92% and the IC50 fell in the range of 100 to 500 nM.

Take `C/C(Nc1cnn(C)c1)=C1/C(=O)Nc2cnc(-c3cnn(C)c3C)cc21` [Example 41, (Z)-5-(1,5-Dimethyl-1H-pyrazol-4-yl)-3-(1-((1-methyl-1H-pyrazol-4-yl)amino)ethylidene)-1H-pyrrolo[2,3-c]pyridin-2(3H)-one]: the inhibition at 1 µM was 69.9%, the inhibition at 10 µM was determined as 77% and the IC50 lay in the range of 50 to 100 nM.

For `COc1cccc(F)c1-c1ccc2c(n1)/C(=C(\C)Nc1cnn(C)c1)C(=O)N2` [Example 43, (Z)-5-(2-Fluoro-6-methoxyphenyl)-3-(1-((1-methyl-1H-pyrazol-4-yl)amino)ethylidene)-1H-pyrrolo[3,2-b]pyridin-2(3H)-one], the inhibition at 1 µM came out at 86.2%, the inhibition at 10 µM came to 89.2% and the IC50 is less than 50 nM.

Consider `COc1cccc(F)c1-c1cc2c(cn1)NC(=O)/C2=C(/C)Nc1cnn(C2CCOCC2)c1` [Example 44, (Z)-5-(2-Fluoro-6-methoxyphenyl)-3-(1-((1-(tetrahydro-2H-pyran-4-yl)-1H-pyrazol-4-yl)amino)ethylidene)-1H-pyrrolo[2,3-c]pyridin-2(3H)-one], for which the inhibition at 1 µM turned out to be 91.4%, the inhibition at 10 µM is 93.1% and the IC50 is less than 50 nM.

`C/C(Nc1cnn(C)c1)=C1/C(=O)Nc2cnc(-c3cnc4c(c3C)NCCO4)cc21` [Example 45, (Z)-3-(1-((1-Methyl-1H-pyrazol-4-yl)amino)ethylidene)-5-(8-methyl-2,3-dihydro-1H-pyrido[2,3-b][1,4]oxazin-7-yl)-1H-pyrrolo[2,3-c]pyridin-2(3H)-one]: the inhibition at 1 µM turned out to be 72.4%, the inhibition at 10 µM came out at 86% and the IC50 lay within 100 to 500 nM.

Turning to `C/C(Nc1ccc(N2CCNCC2)nc1)=C1/C(=O)Nc2cnc(-c3cnccc3C)cc21` [Example 46, (Z)-5-(4-Methylpyridin-3-yl)-3-(1-((6-(piperazin-1-yl)pyridin-3-yl)amino)ethylidene)-1H-pyrrolo[2,3-c]pyridin-2(3H)-one], the inhibition at 1 µM came to 85.3%, the inhibition at 10 µM is 87.3% and the IC50 is less than 50 nM.

Consider `CC/C(Nc1cnn(C)c1)=C1/C(=O)Nc2cnc(-c3cnccc3C)cc21` [Example 47, (Z)-3-(1-((1-Methyl-1H-pyrazol-4-yl)amino)propylidene)-5-(4-methylpyridin-3-yl)-1H-pyrrolo[2,3-c]pyridin-2(3H)-one], for which the inhibition at 1 µM is 83.5%, the inhibition at 10 µM worked out at 82.5% and the IC50 is less than 50 nM.
